# Measured values taken from PMC9598656, “In Vitro Activity of Robenidine Analogues NCL259 and NCL265 against Gram-Negative Pathogens” (Antibiotics, 2022).
# Experiments:
# [1] = system: human Gram-negative isolates comprising 19 E. aerogenes, 20 E. coli, 19 E. cloacae, 20 K. pneumoniae and 16 K. oxytoca; set-up: method as in PMID 30318716; conditions: panel of human Gram-negative isolates; cited from earlier work
# K. pneumoniae ATCC 4352 = system: K. pneumoniae ATCC 4352; set-up: method as in PMID 30318716; conditions: after 30 min treatment; cited from earlier work
# K. pneumoniae 13GNB–429 = experiment: Checkerboard assay with PAβN; assay type: cell-based, Klebsiella pneumoniae; conditions: for concentration at the marked interaction: resazurin
# Experimental: (§1) MICs of NCL259 or NCL265 in the presence of the efflux pump inhibitor, PAβN were determined using a checkerboard assay. […] Briefly, a two-fold serial dilution of each antimicrobial solution was prepared in its appropriate solvent (e.g., DMSO for robenidine analogues and Milli-Q water for PAβN), and 1 μL of each dilution was added from wells 12 to 3 (12.8–0.25 μg/mL for robenidine analogues, and 32–2 μg/mL for PAβN). Thereafter, 89 μL of LB broth was added to each well followed by the addition of 10 μL of bacterial suspension (1–5 × 10^6 CFU/mL) to each well. In this manner, the final concentration of DMSO in each well was 1%. The plate was subsequently incubated at 37 °C for 24 h. The resazurin assay was used for assessment of drug susceptibility of NCL259 and NCL265 (Supplementary Table S1–S6). The same method was also used to test the MICs of NCL259 or NCL265 in the presence of PMB against a range of Gram-negative reference strains (E. coli ATCC 25922, E. coli ATCC 10763, P. aeruginosa PAO1, P. aeruginosa ATCC 27853, A. baumannii ATCC 12457, A. baumannii ATCC 19606, K. pneumoniae ATCC 4352 and K. pneumoniae ATCC 33495). Stock solutions were prepared prior to use (25.6–0.25 mg/mL for robenidine analogues; 12.8–0.25 mg/mL for PMB). The interaction of two antibiotics was calculated as the fractional inhibitory concentration index (FICI) using the following formula:(1) FICI=MICA in combination/MICA alone+MICB in combination/MICB alone where A is NCL259 or NCL265 and B is PAβN or PMB. According to FICI calculations, the interaction between two compounds were interpreted as follows: synergistic (FICI ≤ 0.5); additive or partially synergistic (0.5 < FICI ≤ 1); indifferent (1 < FICI ≤ 4); and antagonistic (FICI > 4), as described previously. The dose reduction index (DRI) was used to describe the difference between the effective doses of NCL259 or NCL265 in combination with PMB or PAβN in comparison to their individual doses, using the following formula:(2) DRI=MICA alone/MICA in combination
# (§2) Evaluation of DRI is important clinically because it can allow the dose of a potentially toxic drug to be lowered in combination with another compound without reducing the drug’s efficacy. A DRI higher than 1 is viewed as beneficial.
# K. pneumoniae 13GNB–550 = experiment: Checkerboard assay with PAβN; assay type: cell-based, Klebsiella pneumoniae; conditions: for concentration at the marked interaction: resazurin
# Experimental: as §1, §2
# [2] = system: E. coli-type strains ATCC 11229 and ATCC 25922; set-up: method as in PMID 30318716, PMID 31312589; conditions: E. coli ATCC 11229 and ATCC 25922; cited from earlier work
# K. oxytoca 13GNB–582 = experiment: Checkerboard assay with PAβN; assay type: cell-based; conditions: for concentration at the marked interaction: resazurin
# Experimental: as §1, §2
# [3] = system: Caco-2 (human colorectal adenocarcinoma cell line); experiment: In vitro cytotoxicity, WST-1; assay type: cell-based; conditions: Caco-2, 24 h
# [4] = system: Gram-negative human and animal isolates, including human KAPE pathogens; experiment: MIC range over all isolates; assay type: cell-based; conditions: variety of Gram-negative human and animal isolates (discussion)
# Experimental: A variety of Gram-negative reference strains (E. coli ATCC 25922, E. coli ATCC 10763, P. aeruginosa PAO1, P. aeruginosa ATCC 27853, A. baumannii ATCC 12457, A. baumannii ATCC 19606, K. pneumoniae ATCC 4352 and K. pneumoniae ATCC 33495) were used for initial screening and combination testing with PMB. The organisms were speciated using biochemical testing and MALDI-TOF mass spectrometry (Bruker, Preston, VIC, Australia). Activity testing of NCL259 and NCL265 was also carried out on 51 extraintestinal clinical E. coli isolates from companion animals, and 83 porcine and bovine enterotoxigenic E. coli (ETEC) isolates from the Australian Centre for Antimicrobial Resistance Ecology collection. […]
# MICs for NCL259 and NCL265 (serial two-fold dilutions commencing at 256 µg/mL) were determined (in duplicate) in round bottom 96–well microtitre trays (Sarstedt 82.1582.001), using the broth micro-dilution method recommended by the Clinical and Laboratory Standards Institute (CLSI). […] The MIC for ampicillin against each isolate was determined for each test to serve as an internal quality control. The MICs of isolates were determined by visual reading and using an EnSpire Multimode Plate Reader 2300 at A600nm.
# [5] = K. pneumoniae 13GNB–429, PAβN + NCL259
# [6] = Table S1, NCL259 + PAβN, replicate 1
# [7] = Table S1, NCL259 + PAβN, replicate 2
# [8] = K. pneumoniae 13GNB–550, PAβN + NCL259
# [9] = Table S2, NCL259 + PAβN, replicate 2
# [10] = K. oxytoca 13GNB–582, PAβN + NCL259
# [11] = Table S3, NCL259 + PAβN, replicate 1
# [12] = Table S3, NCL259 + PAβN, replicate 2
# [13] = first of two independent experiments
# [14] = second of two independent experiments
# [15] = K. pneumoniae 13GNB–429, PAβN + NCL265
# [16] = Table S4, NCL265 + PAβN, replicate 1
# [17] = Table S4, NCL265 + PAβN, replicate 2
# [18] = K. pneumoniae 13GNB–550, PAβN + NCL265
# [19] = Table S5, NCL265 + PAβN, replicate 1
# [20] = Table S5, NCL265 + PAβN, replicate 2
# [21] = K. oxytoca 13GNB–582, PAβN + NCL265
# [22] = Table S6, NCL265 + PAβN, replicate 1
# [23] = Table S6, NCL265 + PAβN, replicate 2
smiles,measurement,setting,value
"[H]/N=C(\N)NN=C(CC1CCCCC1)c1ccc(Cl)cc1 [NCL259, (E)-2-(1-(4-chlorophenyl)-2-cyclohexylethylidene)hydrazine-1-carboximidamide]",MIC range,[1],2 to 64 µg/mL
same,reduction in CFU (bactericidal),K. pneumoniae ATCC 4352,> 5 log 10
same,DRI PAβN:NCL259,K. pneumoniae 13GNB–429; K. pneumoniae 13GNB–429,16
same,Combination Effect,K. pneumoniae 13GNB–429; [5],"Synergism (synergistic, FICI ≤ 0.5)"
same,"MIC, Combination",K. pneumoniae 13GNB–429; [5],16 µg/mL
same,interaction,K. pneumoniae 13GNB–429; [6],synergistic (synergistic (FICI ≤ 0.5))
same,interaction,K. pneumoniae 13GNB–429; [7],synergistic (synergistic (FICI ≤ 0.5))
same,concentration at the marked interaction,K. pneumoniae 13GNB–429; [6],16 µg/mL
same,concentration at the marked interaction,K. pneumoniae 13GNB–429; [7],16 µg/mL
same,DRI PAβN:NCL259,K. pneumoniae 13GNB–550; K. pneumoniae 13GNB–550,32
same,Combination Effect,K. pneumoniae 13GNB–550; [8],"Additivity (additive or partially synergistic, 0.5 < FICI ≤ 1)"
same,FICI,K. pneumoniae 13GNB–550; [8],0.531
same,"MIC, Combination",K. pneumoniae 13GNB–550; [8],8 µg/mL
same,interaction,K. pneumoniae 13GNB–550; [9],synergistic (synergistic (FICI ≤ 0.5))
same,concentration at the marked interaction,"K. pneumoniae 13GNB–550; Table S2, NCL259 + PAβN, replicate 1",16 µg/mL
same,concentration at the marked interaction,K. pneumoniae 13GNB–550; [9],16 µg/mL
same,MBC,[2],8 to 16 µg/mL
same,MIC,[2],8 to 16 µg/mL
same,DRI PAβN:NCL259,K. oxytoca 13GNB–582; K. oxytoca 13GNB–582,32
same,Combination Effect,K. oxytoca 13GNB–582; [10],"Synergism (synergistic, FICI ≤ 0.5)"
same,FICI,K. oxytoca 13GNB–582; [10],0.281
same,"MIC, Combination",K. oxytoca 13GNB–582; [10],8 µg/mL
same,interaction,K. oxytoca 13GNB–582; [11],synergistic (synergistic (FICI ≤ 0.5))
same,interaction,K. oxytoca 13GNB–582; [12],synergistic (synergistic (FICI ≤ 0.5))
same,concentration at the marked interaction,K. oxytoca 13GNB–582; [11],8 µg/mL
same,concentration at the marked interaction,K. oxytoca 13GNB–582; [12],8 µg/mL
same,IC50,[3]; [13],< 1 µg/mL
same,IC50,[3]; [14],3 µg/mL
"[H]/N=C(\N)NN=C(CCCCCC)c1ccc(Cl)cc1 [NCL265, (E)-2-(1-(4-chlorophenyl)heptylidene)hydrazine-1-carboximidamide]",MIC range,[1],2 to 64 µg/mL
same,reduction in CFU (bactericidal),K. pneumoniae ATCC 4352,> 5 log 10
same,MIC range,[4],2 to 32 µg/mL
same,DRI PAβN:NCL265,K. pneumoniae 13GNB–429; K. pneumoniae 13GNB–429,64
same,Combination Effect,K. pneumoniae 13GNB–429; [15],"Additivity (additive or partially synergistic, 0.5 < FICI ≤ 1)"
same,FICI,K. pneumoniae 13GNB–429; [15],0.516
same,"MIC, Combination",K. pneumoniae 13GNB–429; [15],4 µg/mL
same,interaction,K. pneumoniae 13GNB–429; [16],synergistic (synergistic (FICI ≤ 0.5))
same,interaction,K. pneumoniae 13GNB–429; [17],synergistic (synergistic (FICI ≤ 0.5))
same,concentration at the marked interaction,K. pneumoniae 13GNB–429; [16],8 µg/mL
same,concentration at the marked interaction,K. pneumoniae 13GNB–429; [17],8 µg/mL
same,DRI PAβN:NCL265,K. pneumoniae 13GNB–550; K. pneumoniae 13GNB–550,64
same,Combination Effect,K. pneumoniae 13GNB–550; [18],"Additivity (additive or partially synergistic, 0.5 < FICI ≤ 1)"
same,FICI,K. pneumoniae 13GNB–550; [18],0.516
same,"MIC, Combination",K. pneumoniae 13GNB–550; [18],4 µg/mL
same,interaction,K. pneumoniae 13GNB–550; [19],synergistic (synergistic (FICI ≤ 0.5))
same,interaction,K. pneumoniae 13GNB–550; [20],synergistic (synergistic (FICI ≤ 0.5))
same,concentration at the marked interaction,K. pneumoniae 13GNB–550; [19],8 µg/mL
same,concentration at the marked interaction,K. pneumoniae 13GNB–550; [20],8 µg/mL
same,MBC,[2],8 to 16 µg/mL
same,MIC,[2],8 to 16 µg/mL
same,DRI PAβN:NCL265,K. oxytoca 13GNB–582; K. oxytoca 13GNB–582,128
same,Combination Effect,K. oxytoca 13GNB–582; [21],"Additivity (additive or partially synergistic, 0.5 < FICI ≤ 1)"
same,FICI,K. oxytoca 13GNB–582; [21],0.508
same,"MIC, Combination",K. oxytoca 13GNB–582; [21],2 µg/mL
same,interaction,K. oxytoca 13GNB–582; [22],synergistic (synergistic (FICI ≤ 0.5))
same,interaction,K. oxytoca 13GNB–582; [23],synergistic (synergistic (FICI ≤ 0.5))
same,concentration at the marked interaction,K. oxytoca 13GNB–582; [22],4 µg/mL
same,concentration at the marked interaction,K. oxytoca 13GNB–582; [23],8 µg/mL
same,IC50,[3]; [13],< 1 µg/mL
same,IC50,[3]; [14],< 2 µg/mL
